Results from patent US20260138961A1, “MODULATORS OF MITOCHONDRIAL DNA REPLICATION” (Pretzel Therapeutics, Inc., priority 2022, published 2026).
Substitutions are numbered along the chain they refer to.

Key:
POLγA:G848S = molecular target: T1, POLγA:G848S (Homo sapiens, UniProt P54098, G848S); experiment: DNA polymerization assay, POLγA:G848S mutant; assay type: biochemical; settings: stimulation of polymerase activity, primed M13mp18 ssDNA, 37° C. 2 hours; read-out: G848S AC50
T1 sequence (P54098 1-1239 G848S): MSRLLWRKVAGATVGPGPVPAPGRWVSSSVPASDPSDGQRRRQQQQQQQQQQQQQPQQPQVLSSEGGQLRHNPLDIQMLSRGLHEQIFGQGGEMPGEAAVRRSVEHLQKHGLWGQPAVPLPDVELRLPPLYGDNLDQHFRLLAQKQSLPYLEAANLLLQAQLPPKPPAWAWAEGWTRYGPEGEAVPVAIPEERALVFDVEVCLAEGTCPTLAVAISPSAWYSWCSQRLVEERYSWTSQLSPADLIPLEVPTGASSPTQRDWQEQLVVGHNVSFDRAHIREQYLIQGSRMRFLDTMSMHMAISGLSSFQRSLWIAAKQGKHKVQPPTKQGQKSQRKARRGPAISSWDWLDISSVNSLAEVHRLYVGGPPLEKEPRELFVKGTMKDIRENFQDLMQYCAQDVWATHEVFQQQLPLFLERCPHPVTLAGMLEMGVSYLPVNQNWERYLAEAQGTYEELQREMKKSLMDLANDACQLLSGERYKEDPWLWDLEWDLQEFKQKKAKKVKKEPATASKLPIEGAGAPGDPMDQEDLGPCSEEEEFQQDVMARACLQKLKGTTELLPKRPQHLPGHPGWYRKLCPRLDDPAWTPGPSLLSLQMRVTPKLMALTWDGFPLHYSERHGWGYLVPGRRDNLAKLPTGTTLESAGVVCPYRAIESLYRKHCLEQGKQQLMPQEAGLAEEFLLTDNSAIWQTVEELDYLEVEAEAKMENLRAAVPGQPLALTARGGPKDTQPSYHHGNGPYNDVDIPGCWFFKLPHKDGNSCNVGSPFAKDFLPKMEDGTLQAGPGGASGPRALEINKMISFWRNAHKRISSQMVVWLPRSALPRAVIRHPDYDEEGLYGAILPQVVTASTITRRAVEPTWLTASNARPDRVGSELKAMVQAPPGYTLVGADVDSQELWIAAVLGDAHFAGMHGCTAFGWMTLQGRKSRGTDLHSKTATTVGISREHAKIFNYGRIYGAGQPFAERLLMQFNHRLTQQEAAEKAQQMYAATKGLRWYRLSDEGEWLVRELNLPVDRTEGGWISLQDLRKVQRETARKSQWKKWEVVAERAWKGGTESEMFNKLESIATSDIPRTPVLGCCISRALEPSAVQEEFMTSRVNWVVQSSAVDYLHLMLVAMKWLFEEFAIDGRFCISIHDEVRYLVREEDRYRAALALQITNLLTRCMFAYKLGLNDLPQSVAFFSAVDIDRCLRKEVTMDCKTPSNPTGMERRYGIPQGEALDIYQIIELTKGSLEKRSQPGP
T1 sequence (Q9UHN1 1-485 partner): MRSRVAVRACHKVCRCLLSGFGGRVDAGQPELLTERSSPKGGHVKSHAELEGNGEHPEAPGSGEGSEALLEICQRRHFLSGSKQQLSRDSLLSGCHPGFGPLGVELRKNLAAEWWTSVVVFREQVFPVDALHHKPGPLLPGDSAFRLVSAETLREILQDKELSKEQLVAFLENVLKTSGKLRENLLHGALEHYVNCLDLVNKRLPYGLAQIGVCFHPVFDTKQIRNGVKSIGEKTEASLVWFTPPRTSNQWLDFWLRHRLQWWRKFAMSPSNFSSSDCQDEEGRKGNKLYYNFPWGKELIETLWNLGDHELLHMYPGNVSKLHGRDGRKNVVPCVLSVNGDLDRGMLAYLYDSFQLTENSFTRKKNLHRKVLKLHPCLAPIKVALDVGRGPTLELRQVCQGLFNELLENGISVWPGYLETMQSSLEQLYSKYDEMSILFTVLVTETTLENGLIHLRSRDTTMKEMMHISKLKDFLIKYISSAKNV
Protocol: DNA Polymerization Assay to Monitor Effects on Human Wildtype POLγ and Four Disease-Causing Mutant Variants of Human POLγ.
The ability of small molecules to stimulate the polymerase activity of POLγ was analyzed in a quantitative fluorescence SYBR Green I assay with fluorescence intensity (FI) readout.
In the presence of dNTPs, wild type human POLγ and mutant derivatives thereof were incubated with single-stranded, circular M13mp18 ssDNA hybridized to a short DNA oligonucleotide that functions as a primer for initiation of DNA synthesis. POLγ and mutant derivatives thereof will extend the primer and use the M13mp18 molecule as a template to synthesize long stretches of double-stranded DNA. SYBR Green I, which is a double-stranded DNA-binding dye, was used to quantify formation of double-stranded DNA in the reaction. When bound to double-stranded DNA, SYBR Green I fluorescence increases by up to 100-fold.
The assay was performed in the 384-well plate format. Upon addition of compounds, changes in double-stranded DNA synthesis activity can be monitored by following effects on fluorescent intensity.
The reactions also contained the accessory POLγB subunit, and the human mitochondrial single-stranded DNA binding protein (mtSSB).
The DNA template mixture used in the assay contained 0.5 nM primed M13 mp18 ssDNA, 400 nM mtSSB, 0.1 mM Tris-HCl (pH 8.0), 0.1 mM dNTP, 10 mM MgCl2, 0.1 mg/mL BSA, 1 mM TCEP solution, and 0.02% Triton X-100. The DNA template mixture for the wild type protein contained either 100 μM dNTP, 1 μM dNTP, or 0.1 μM dNTP, designated in Table 2 as 100 μM, 1 μM, and 0.1 μM, respectfully.
(§1) Microplates with compounds (0.1 μL in each well) to be tested in the assay were prepared from 10 mM compound stocks in 100% DMSO, and equal amounts of DMSO without any compound were added to positive and negative control wells.
The protein mixture was dispensed (5 μL into each well) into compound plates and incubated at 37° C. for 15 minutes. After incubation, 5 μL of the DNA template mixture was dispensed into each well. The plates were then incubated at 37° C. for 2 hours.
(§2) During incubation, a combined stop buffer and detection reagent solution was prepared. The buffer contained 25 mM EDTA (pH 8.0), 0.02% Triton X-100, and SYBR Green I [Invitrogen] diluted 10,000× (for fluorescent readout). EDTA will stop the enzymatic reaction by chelating magnesium ions.

[1] = molecular target: T2, human POLγ 3′-5′ exonuclease activity (Homo sapiens, UniProt P54098); experiment: Exonuclease inhibition assay with human POLγ (SYBR Green I fluorescence); assay type: biochemical; settings: POLγA 1 nM, POLγB 1.3 nM, 5 nM exonuclease template, no dNTPs, 37° C. 2.5 hours
T2 sequence (P54098 1-1239): T1 sequence (P54098 1-1239 G848S) with S848G
T2 sequence (Q9UHN1 1-485 partner): T1 sequence (Q9UHN1 1-485 partner)
Protocol: Exonuclease inhibition assay with human POLγ.
The ability of small molecules to inhibit the 3′-5′ exonuclease activity of POLγ was analyzed in a quantitative fluorescence SYBR Green I assay with fluorescence intensity (FI) readout.
Human POLγ was incubated with a linear, partially double-stranded template containing an 85 base pair double-stranded DNA stretch and a 15 nucleotides long single-stranded 5′-tail (hereafter referred to as the “exonuclease template”). […] When bound to double-stranded DNA, SYBR Green I fluorescence increases by up to 100-fold. In the absence of deoxynucleotide triphosphates (dNTPs), the exonuclease activity of POLγ degrades the 85-mer strand, which leads to the formation of single-stranded DNA (ssDNA) and decreased fluorescent intensity. The assay was performed in a 384-well plate format.
The exonuclease template used was generated by hybridization of a 100 nucleotides long, single-stranded DNA molecule with an inverted dT at the 3′-end (5′-TTTTTTTTTATCCGGGCTCGTTATCTAAGCTGCTCTTGGTAGGCATTGACGTCCATACTGCAAATTCAGCTCTGTGCAGTTAGGCAGGAGTCTACAAGC invT-3′) to an 85 nucleotides long single-stranded DNA molecule (5′-AGCTTGTAGACTCCTGCCTAACTGCACAGAGCTGAATTTGCAGTATGGACGTCAATGCCTACCAGAGCAGCTTAGATAACGAGC-3′), using a Bio-Rad T100 Thermal Cycler. The inverted dT is characterized by a 3′-3′ linkage, which inhibits both degradation of the 3′-5′ exonuclease activity and extension by DNA polymerases.
POLγ is an heterotrimer of one POLγA subunit (harboring exonuclease and DNA polymerase activities) and two accessory POLγB subunits. Proteins used in the exonuclease assay were POLγA (NP_002684) and POLγB (NP_009146).
The protein mixture used in the assays contained POLγA (1 nM), POLγB (1.3 nM, concentration calculated as a dimer), 25 mM Tris-HCl (pH 8.0), 0.1 mg/mL bovine serum albumin, 1 mM Bond-Breaker TCEP solution (pH 7) [Thermo Fisher], 25 mM NaCl, and 0.02% Triton X-100.
The DNA template mixture used in the assay contained 5 nM of the exonuclease template, 25 mM Tris-HCl (pH 8.0), 10 mM MgCl2, 0.1 mg/mL bovine serum albumin, 1 mM Bond-Breaker TCEP solution [Thermo Fisher], and 0.02% Triton X-100.
as §1
The protein mixture containing POLγ was dispensed (5 μL in each well) into compound plates and incubated at 37° C. for 15 minutes to allow compound binding to the POLγ complex. After incubation, 5 μL of the DNA template mixture was dispensed into each well. The plates were incubated at 37° C. for 2.5 hours.
as §2
After the 2.5-hour incubation period, the SYBR Green I solution was added (10 μL) to the screening plates and the plates were incubated at room temperature in the dark for 20 minutes before the fluorescent signal was read between […] on a BMG Pherastar microtiter plate reader.

Structure (SMILES) | AC50 (POLγA:G848S) | IC50 [1]
Cc1cc(S(=O)(=O)Nc2cccc(C(=O)N[C@@H](C)c3ccccc3)c2)c(C)cc1Cl [Example 45, (S)-3-((4-chloro-2,5-dimethylphenyl)sulfonamido)-N-(1-phenylethyl)benzamide] | > 100 µM | –
Cc1cc(S(=O)(=O)Nc2cccc(-c3nc(C4CC4)cn3C)c2)c(C)cc1Cl [Example 186, 4-chloro-N-(3-(4-cyclopropyl-1-methyl-1H-imidazol-2-yl)phenyl)-2,5-dimethylbenzenesulfonamide] | – | 7 µM
